# Test results: patent US8609417B2, “Methods and compositions for stem cell cultures” (The Regents of the University of California, priority 2009, dated 2013)
# Legend:
# Format in all cases: cell-based, human
# Oct3/4 and Nanog = Oct3/4 and Nanog expression by QPCR, Western analysis and immunocytochemistry; settings: hES cells in mTeSR or hESm, different concentrations, 48 h
# Experimental: For immunocytochemistry, cells grown on culture vessels were fixed in 4% paraformaldehyde (USB Corporation). After washing with PBS/BSA, the samples were incubated with primary antibodies recognizing the target proteins at 4° C. overnight. The primary antibodies used in the study include Oct3 (BD Biosciences), myosin IIA (Covance), and myosin IIB (Covance). The samples were washed for three times, and incubated with appropriate secondary antibodies conjugated with Alexa Fluorophore (Invitrogen) at room temperature for 30 min. […]
# QPCR. […] The extracted RNA sample was quantified by UV spectrophotometer, and qualified by the RNA Nano Lab chip (Agilent Technologies). […] Each cycle threshold (CT) value was determined by iQ5 optical system software (BioRad), and normalized by the β-actin expression level. […]
# Total protein was extracted with RIPA buffer (20 mM Tris-HCl, pH 7.5, 150 mM NaCl, 1 mM Na2EDTA, 1 mM EGTA, 1% NP-40, 1% sodium deoxycholate, 2.5 mM sodium pyrophosphate, 1 mM β-glycerophosphate, 1 mM Na3VO4, and protease inhibitors). Protein concentrations were determined by BCA Protein Assay kit (Pierce). […]
# cleaved caspase-3 = assay: Western analysis of cleaved caspase-3; settings: hiPS cells under adherence condition
# Experimental: Total protein was extracted with RIPA buffer (20 mM Tris-HCl, pH 7.5, 150 mM NaCl, 1 mM Na2EDTA, 1 mM EGTA, 1% NP-40, 1% sodium deoxycholate, 2.5 mM sodium pyrophosphate, 1 mM β-glycerophosphate, 1 mM Na3VO4, and protease inhibitors). Protein concentrations were determined by BCA Protein Assay kit (Pierce). An equal amount (20 μg) of protein was loaded in each lane, separated by 10% SDS/PAGE, and transferred onto a PVDF membrane (BioRad). The membrane was blocked in Odyssey blocking buffer (LI-COR Biotechnology), and subsequently incubated with primary antibodies against Oct3 (Santa Cruz Biotechnology), Nanog (Millipore), myosin IIA (Covance), myosin IIB (Covance), cleaved caspase-3 (Cell Signaling), or β-actin (Sigma) at 4° C. overnight followed by incubation with peroxidase-conjugated goat anti-mouse IgG or goat anti-rabbit IgG (Jackson ImmunoResearch, Inc.), and developed with ECL reagent (GE Healthcare).
# hiPS cells = assay: TUNEL assay (apoptosis)
# Experimental: The samples in triplicates used for cell viability assay were immediately tested by TUNEL assay by using APO-DIRECT kit (BD Pharmingen) according to the manufacturer's protocol. The number of TUNEL (FITC) or propidium iodide (PI)-positive cells was counted by hemocytometer under fluorescent microscopy with 20× objective. When necessary, FITC-labeled cells were verified by using 40× objective to exclude non-specific signal. At least 300 cells were evaluated per each sample and counting was repeated for 2 times. The ratio of the number of TUNEL-positive cells to the number of PI-positive cells was calculated. The representative result was shown in the figure from experiments repeated for at least 3 times. Although flow cytometric analysis was initially attempted, due to persistent cell aggregations from suspension culture experiments even after extensive trypsinization and trituration, we decided to switch to manual cell counting which well correlated with the data obtained from cell viability assay.
compound,measurement,setting,value
"Cc1ccc2c(c1)C(=O)C1(O)CCN(c3ccccc3)C1=N2 (stereo not shown) [blebbistatin, 1-Phenyl-1,2,3,4-tetrahydro-4-hydroxypyrrolo[2,3-b]-7-methylquinolin-4-one]",Oct3/4 and Nanog expression,Oct3/4 and Nanog,elevated levels of both transcription factors in a dose dependent manner
same,Cleaved caspase-3 level by Western analysis,cleaved caspase-3,decreased
same,Level of apoptosis (TUNEL and cleaved caspase-3 assays),hiPS cells; hPS cells in suspension culture,significantly lower levels of apoptosis
same,TUNEL-positive cells,"hiPS cells; hiPS cells under adherence condition, 24 h, n=3 (control 73±2.5%)",11±3.8%
